Tests used:
Assay type in all cases: cell-based, human
[1] = tested on: NMDA-type glutamate receptors of differentiated hES-NPCs; assay: Whole-cell patch-clamp recording of ligand-gated currents; conditions: for effect on glutamate-evoked currents: voltage clamp, holding potential −60 mV, after 2 to 2.5 weeks in culture, 100 μM D-APV
differentiated hES-NPCs = assay: Whole-cell patch-clamp recording of GABA-evoked currents; conditions: 2.5 weeks in culture
hESCs = assay: Spheroid bodies formation in suspension medium; conditions: addition to the suspension medium (2 mM)
Description: Spheroid bodies formation: the small clusters (10-100 cells) of hESCs were grown in polypropylene dishes (Ted Pella) in Suspension Medium (1:1 ratio of DMEM/F12:neurobasal medium with N2+B27 supplements, 20 ng/ml insulin 20 ng/ml bFGF, 20 ng/ml EGF and 2 mM N-acetyl cysteine (NAC)). The spheres were grown for 4-6 days, with a change in medium every alternate day.

[2] = tested on: glutamate receptors of differentiated hES-NPCs cultures; assay: Calcium imaging; conditions: 4-5 week old cultures; NMDA followed by glutamate, 37° C.
Description: Calcium Imaging. Measurement of intracellular free Ca2+ ([Ca2+]i) in differentiated HNSC cultures was performed using Fura-2-AM or Fluo-3-AM as described earlier (Tenneti et al., J Neurochem 71: 946-59, 1998) with the minor modification. Briefly, ES derived hNPC cells were washed twice with recording medium containing 150 mM NaCl, 3 mM KCl, 2 mM CaCl2, 5 mM glucose, 10 μM glycine, and 10 mM HEPES (pH 7.4) and incubated generally at 37° C. in recording medium containing 30 nM Pluronic F-127 and 5 μM Fluo-3 AM for 30 minor 10 μMFura-2-AM for 60 min (acetoxymethyl esters; Molecular Probes). Cultures were then washed three times with recording medium, followed by settlement at 37° C. for at least 30 min. Cells were invariably used within 1 hr after these procedures for observation. During the experiments, cells were kept in a perfusion chamber on the microscope stage at room temperature (Fluo-3) or 37° C. (Fura-2 experiments). Imaging was done using a Sutter DG-4 fast wavelength switcher coupled to a Zeiss Axiovert microscope with a 20×, 0.5 NA, objective. […] Changes in fluorescence intensity were calculated by dividing the measured fluorescence intensity (F; ratio of 340/380 nm for Fura-2) by the measured average baseline fluorescence intensity (F/F0) Excitation was achieved using standard FITC or Fura-2 filter sets (Chroma technologies).

[3] = tested on: Voltage-gated Na+ currents of differentiated hES-NPCs

N[C@H](CCCP(=O)(O)O)C(=O)O [D-APV, D-(−)-2 amino-5-phosphonovaleric acid]
effect on glutamate-evoked currents [1]: partially blocked
effect on glutamate-evoked currents ([1]; listed as APV): partially inhibited

NCCCC(=O)O [GABA, γ-aminobutyric acid]
cells with agonist-evoked currents (cells of cells recorded) (differentiated hES-NPCs): 4 of 29

CC(=O)N[C@@H](CS)C(=O)O [NAC, N-acetyl cysteine]
morphology of spheroid bodies (hESCs): healthier morphology of spheroid bodies

CN[C@H](CC(=O)O)C(=O)O [NMDA, N-methyl-D-aspartate]
[Ca2+] response of fura-2-loaded cells [2]: Robust responses

NC1=N[C@H](O)[C@H]2[C@H]3O[C@]4(O)O[C@@H]([C@@H](O)[C@@]2(N1)[C@@H]4O)[C@]3(O)CO [TTX, tetrodotoxin]
effect on fast Na+ currents [3]: reversibly blocked

N[C@@H](CCC(=O)O)C(=O)O [glutamate]
[Ca2+] response of fura-2-loaded cells [2]: Robust responses
cells that manifest agonist-evoked currents ([1]; after 2 weeks in culture): approximately 30%
